Test results reported in patent US20170202783A1, “Amphiphilic Peptide Nanoparticles for Use as Hydrophobic Drug Carriers and Antibacterial Agents” (Northeastern University, priority 2014, published 2017).
Each block holds one molecule with its values, some of them ahead of it. Where a SMILES comes first, the peptide text is derived from it. The star is where a group is joined. Stearoyl = CCCCCCCCCCCCCCCCCC(=O)*

Experiments:
[1] = background statement; cited from earlier work
MG-63 osteosarcoma cells [2] = assay: Cellular uptake of curcumin by bright field and confocal microscopy; format: cell-based, human; details: 20 μM curcumin
Description: (§1) A confocal laser scanning microscope and a bright field microscope were used for a qualitative study of the cellular uptake of curcumin from curcumin-loaded APNPs. First, 1 mL each of the osteosarcoma cell line and the healthy human osteoblast cell line were seeded on a 24-well plate at a density of 2×10^4 cells/mL. […] The cells were then rinsed with phosphate-buffered saline three times to remove the unabsorbed curcumin. The qualitative uptake of curcumin was then monitored by bright field microscopy. In another study, the nuclei of the cells were tracked by blue fluorescent DAPI staining using confocal microscopy (FIGS. 8A-8F), and the F-actin filaments of cells were stained with red fluorescent Rhodamine 6G. After 10 minutes of fixation by 10% formaldehyde solution and subsequent treatment with a 0.1% Triton X-100 solution for 10 minutes, the cells were stained with DAPI and Atto Rho6G phalloidin and observed using a Zeiss LSM710 laser scanning confocal microscope.

[3] = Solubility of curcumin in water; format: physicochemical; details: thermodynamic from solid
[4] = system: healthy human osteoblasts; assay: Cellular uptake of curcumin by bright field and confocal microscopy; format: cell-based; details: normal human osteoblast cells, 20 μM curcumin
Description: as §1

[5] = Zeta potential measurement (ZS90 Nanosizer); format: physicochemical; details: deionized water
Description: The zeta potential of the nanoparticles was determined using 1 mL of each sample, each measured for ten preparations in triplicate.

Human dermal fibroblasts = details: 24 hours, MTS
Description: Human dermal fibroblasts (Lonza, CC-2511) were plated at a density of 10,000 cells/cm^2 in a 96-well plate and maintained in DMEM culture medium supplemented with 10% fetal bovine serum (FBS, Hyclone) and 1% penicillin/streptomycin (P/S, Hyclone). APNPs were added to the culture medium to achieve the indicated final concentration of C18GR7RGDS, and the cells were incubated for 24 hours prior to determination of cell density by MTS assay.

MG-63 osteosarcoma cells [6] = assay: MTT cytotoxicity assay; details: osteosarcoma cell line, highest concentration investigated, 24 hours, serum-free medium
Description: (§2) MG-63 osteosarcoma (CRL-1427) cells (American Type Culture Collection) were cultured in Eagle's Minimum Essential Medium supplemented with 10% fetal bovine serum and 1% penicillin/streptomycin, while healthy human osteoblasts (C-12760, PromoCell) were cultured in complete growth medium composed of osteoblast basal medium and osteoblast growth medium Supplement Mix. Both cell lines were incubated at 37° C. in a humidified incubator with an atmosphere of 95% […] and 5% CO2. Cells were used at population doubling numbers less than 3. Eagle's Minimum Essential Medium was purchased from the American Type Culture Collection (Manassas, Va., USA), and osteoblast basal medium and osteoblast growth medium Supplemental Mix were purchased from PromoCell (Heidelberg, Germany). Methyl-thiazolyl-tetrazolium (MTT) dye solution was purchased from Promega (Madison, Wis., USA). 4′,6-diamidino-2-phenylindole (DAPI), and Atto Rho6G phalloidin were supplied by Sigma-Aldrich (St Louis, Mo., USA).
(§3) 100 μL of the osteosarcoma and healthy osteoblast cell suspensions were seeded on a 96-well plate at 2×10^3 cells/well (cell density 6,154 cells/cm^2). […] Cells treated with medium only were used as a […] control. […]
(§4) The cells were treated for 24 hours. […] Cell viability was expressed as the ratio of cell density in each sample to the cell density in the control sample.

[7] = system: healthy human osteoblasts; assay: MTT cytotoxicity assay; details: human osteoblast cell line, highest concentration investigated, 24 hours, serum-free medium
Description: as §2, §3, §4

solubility [3]: < 100 µg/mL
SMILES: COc1cc(/C=C/C(=O)CC(=O)/C=C/c2ccc(O)c(OC)c2)ccc1O [curcumin, diferuloylmethane]
solubility in water [1]: insoluble in water
curcumin uptake, confocal fluorescence (MG-63 osteosarcoma cells [2]): neither cell line showed detectable fluorescence
curcumin uptake, bright field microscopy (MG-63 osteosarcoma cells [2]; 2 hours): did not accumulate in the cytosol
curcumin uptake, confocal fluorescence [4]: neither cell line showed detectable fluorescence
curcumin uptake, bright field microscopy ([4]; 2 hours): did not accumulate in the cytosol

SMILES: CCCCCCCCCCCCCCCCCC(=O)NCC(=O)N[C@@H](CCCNC(=N)N)C(=O)N[C@@H](CCCNC(=N)N)C(=O)N[C@@H](CCCNC(=N)N)C(=O)N[C@@H](CCCNC(=N)N)C(=O)N[C@@H](CCCNC(=N)N)C(=O)N[C@@H](CCCNC(=N)N)C(=O)N[C@@H](CCCNC(=N)N)C(=O)N[C@@H](CCCNC(=N)N)C(=O)NCC(=O)N[C@@H](CC(=O)O)C(=O)N[C@@H](CO)C(=O)O [pure C18GR7RGDS APNPs] (Stearoyl-GRRRRRRRRGDS-OH)
stability in aqueous solution (indicated by zeta potential) [5]: stable in aqueous solution
concentration resulting in significant loss of cell viability (reduced density of living cells) (Human dermal fibroblasts): ≥ 40 µM
cytotoxicity (MG-63 osteosarcoma cells [6]): minor cytotoxicity
cytotoxicity [7]: minor cytotoxicity
